Assay results from patent US20050042701A1, “Anti-petasin antibodies, methods for the production thereof and their use” (priority 1998, published 2005).
Read-outs that look alike come from different tables or passages of the source.

Assay: 1st phase clinical test: pharmacokinetics of petasin in serum after single oral administration of tablets containing butterbur extract (open crossover; enzyme immunoassay)
Format: in vivo, human (clinically healthy men)
Conditions: for concentration at 0.25 h: 0.25 h p.a.; for concentration at 0.5 h: 0.5 h p.a.; for concentration at 0.75 h: 0.75 h p.a.; for concentration at 1 h: 1 h p.a.; for concentration at 1.17 h: 1.17 h p.a. (1.167 in Table 3); for concentration at 1.5 h: 1.5 h p.a.; for concentration at 1.833 h: 1.833 h p.a.; for concentration at 2.167 h: 2.167 h p.a.; for concentration at 2.5 h: 2.5 h p.a.; for concentration at 3 h: 3 h p.a.; for concentration at 4 h: 4 h p.a.; for concentration at 5 h: 5 h p.a.; for concentration at 6 h: 6 h p.a.; for concentration at 8 h: 8 h p.a.; for concentration at 12 h: 12 h p.a.; for concentration at 24 h: 24 h p.a.; for Cmax / MRT / Tmax / half-life / AUC / AUC(0-t): single oral, mean ± SD; for AUC: read-out: AUC0-i; for AUC(0-t): read-out: AUC0-t(last)
Experimental: Petasin ovalbumin is adsorptively bound to polystyrene microtitration plates in a concentration of […] in 0.1 M carbonate buffer, pH=9.5, (100 μl/well) for 16 hours at 4° C. and thereupon sucked off. After washing it two times with 300 μl/well washing buffer (PBS, 0.1% Tween 20) it is blocked for 2 hours at room temperature with 150 μl/well blocking solution (0.6% gelatine, 0.02% […] in PBS) and subsequently washed three times with washing buffer.
50 μl of the serum sample to be tested or the respective standard (1:4 dilution in a sample buffer (PBS, 1% BSA, 0.1% Tween 20, 0.01% thiomersal) and 50 μL of an optimized anti-serum dilution in a sample buffer are simultaneously incubated with shaking for 1 hour at room temperature. Subsequently, the microtitration plate is washed three times with 300 μl/well of washing buffer and incubated for 30 min. at room temperature with 100 μl of anti-rabbit immunoglobulin peroxidase conjugate, diluted in sample buffer, and once more washed as above. Thereupon, it is incubated for 10 min. with 100 μl of a substrate solution ready for use (3.3′, 5.5′-tetramethyl benzidine) per well and the reaction is stopped by adding 100 μl/well of 0.5 M sulfuric acid. The evaluation is carried out at 450 nm in a microtitration plate reader.
In a 1st phase of the clinical test for determining the pharmacokinetic parameters of tablets containing butterbur extract was a single oral administrations of 2 or 4 tablets to 24 clinically healthy men at the age between 18 and 40 years.
The open, crossover test was chosen as method, single administration of each dose in a randomized order with an interval of at least 7 days between the administrations.
Model-independent pharmacokinetic parameters for petasin Statistical methods:
ANOVA, ANOVAlog, Wilcoxon-Mann-Whitney test, Wilcoxon-sign order test

[1] = male, human, serum, oral, 4 tablets, after administering 4 tablets, read-out: Petasin serum concentration Max.
[2] = male, human, serum, oral, 4 tablets, after administering 4 tablets, read-out: Petasin serum concentration Mean
[3] = male, human, serum, oral, 4 tablets, after administering 4 tablets, read-out: Petasin serum concentration Median
[4] = male, human, serum, oral, 4 tablets, after administering 4 tablets, read-out: Petasin serum concentration Min.

## C=C(C)C1CC2(C)C(=CC1=O)CCC(OC(=O)/C(C)=C\C)C2C (stereo not drawn) [petasin]
male, human, serum, oral, 4 tablets, after administering 4 tablets, 0 h p.a., read-out: Petasin serum concentration Min.
  concentration at 0 h: 0 µg/mL
[1]
  concentration at 0.25 h: 0.0149 µg/mL
  concentration at 0.5 h: 0.0962 µg/mL
  concentration at 0.75 h: 0.0918 µg/mL
  concentration at 1 h: 0.1 µg/mL
  concentration at 1.17 h: 0.1 µg/mL
  concentration at 1.5 h: 0.0907 µg/mL
  concentration at 1.833 h: 0.1 µg/mL
  concentration at 2.167 h: 0.0761 µg/mL
  concentration at 2.5 h: 0.0409 µg/mL
  concentration at 3 h: 0.049 µg/mL
  concentration at 4 h: 0.0208 µg/mL
  concentration at 5 h: 0.0814 µg/mL
  concentration at 6 h: 0.0147 µg/mL
  concentration at 8 h: 0.0157 µg/mL
  concentration at 12 h: 0.0051 µg/mL
  concentration at 24 h: 0.0023 µg/mL
[2]
  concentration at 0.25 h: 0.0042 µg/mL
  concentration at 0.5 h: 0.0212 µg/mL
  concentration at 0.75 h: 0.0287 µg/mL
  concentration at 1 h: 0.0366 µg/mL
  concentration at 1.17 h: 0.0473 µg/mL
  concentration at 1.5 h: 0.0408 µg/mL
  concentration at 1.833 h: 0.032 µg/mL
  concentration at 2.167 h: 0.0289 µg/mL
  concentration at 2.5 h: 0.0243 µg/mL
  concentration at 3 h: 0.0179 µg/mL
  concentration at 4 h: 0.0095 µg/mL
  concentration at 5 h: 0.0124 µg/mL
  concentration at 6 h: 0.0058 µg/mL
  concentration at 8 h: 0.0039 µg/mL
  concentration at 12 h: 0.0027 µg/mL
  concentration at 24 h: 0.0013 µg/mL
[3]
  concentration at 0.25 h: 0.0032 µg/mL
  concentration at 0.5 h: 0.0137 µg/mL
  concentration at 0.75 h: 0.023 µg/mL
  concentration at 1 h: 0.0381 µg/mL
  concentration at 1.17 h: 0.0436 µg/mL
  concentration at 1.5 h: 0.0324 µg/mL
  concentration at 1.833 h: 0.0268 µg/mL
  concentration at 2.167 h: 0.0275 µg/mL
  concentration at 2.5 h: 0.0261 µg/mL
  concentration at 3 h: 0.0146 µg/mL
  concentration at 4 h: 0.0081 µg/mL
  concentration at 5 h: 0.0073 µg/mL
  concentration at 6 h: 0.005 µg/mL
  concentration at 8 h: 0.0031 µg/mL
  concentration at 12 h: 0.0025 µg/mL
  concentration at 24 h: 0.001 µg/mL
[4]
  concentration at 0.25 h: 0.001 µg/mL
  concentration at 0.5 h: 0.0013 µg/mL
  concentration at 0.75 h: 0.0025 µg/mL
  concentration at 1 h: 0.0078 µg/mL
  concentration at 1.17 h: 0.0075 µg/mL
  concentration at 1.5 h: 0.0122 µg/mL
  concentration at 1.833 h: 0.0138 µg/mL
  concentration at 2.167 h: 0.0114 µg/mL
  concentration at 2.5 h: 0.0084 µg/mL
  concentration at 3 h: 0.0072 µg/mL
  concentration at 4 h: 0.0029 µg/mL
  concentration at 5 h: 0.0032 µg/mL
  concentration at 6 h: 0.0016 µg/mL
  concentration at 8 h: 0.0014 µg/mL
  concentration at 12 h: 0.0013 µg/mL
  concentration at 24 h: 0.001 µg/mL
male, human, serum, 2 tablets
  Cmax: 0.0255 ± 0.0148 µg/mL
  MRT: 7.32 ± 3.74 h
  Tmax: 1.62 ± 0.499 h
  half-life: 7.16 ± 4.61 h
  AUC: 0.0797 ± 0.0423 µg·h/mL
  AUC(0-t): 0.0653 ± 0.0356 µg·h/mL
male, human, serum, 4 tablets
  Cmax: 0.0581 ± 0.0267 µg/mL
  MRT: 6.74 ± 2.47 h
  Tmax: 1.61 ± 0.926 h
  half-life: 7.62 ± 3.34 h
  AUC: 0.168 ± 0.0734 µg·h/mL
  AUC(0-t): 0.151 ± 0.0682 µg·h/mL
Single oral administration of 2 or 4 tablets
  Resorption: takes quickly place depending on the dose
